# From patent US20150276755A1, “METHODS FOR DETERMINING RESISTANCE AGAINST MOLECULES TARGETING PROTEINS” (AGENCY FOR SCIENCE, TECHNOLOGY AND RESEARCH, priority 2012, published 2015)
# Entries after “also recorded” stand apart in the source; their conditions may differ.
# How the values were obtained:
# HDM2 M62A = molecular target: T1, HDM2 M62A (Homo sapiens, UniProt Q00987, M62A); assay: p53 reporter assay in p53/HDM2-null DKO cells, HDM2 M62A; type: cell-based; conditions: 20 μM
# T1 construct: expressed in transfected cells; host or cells: DKO mouse embryonic fibroblasts (A12); HCT116 p53+/+ (A28)
# T1 sequence (Q00987 whole entry M62A): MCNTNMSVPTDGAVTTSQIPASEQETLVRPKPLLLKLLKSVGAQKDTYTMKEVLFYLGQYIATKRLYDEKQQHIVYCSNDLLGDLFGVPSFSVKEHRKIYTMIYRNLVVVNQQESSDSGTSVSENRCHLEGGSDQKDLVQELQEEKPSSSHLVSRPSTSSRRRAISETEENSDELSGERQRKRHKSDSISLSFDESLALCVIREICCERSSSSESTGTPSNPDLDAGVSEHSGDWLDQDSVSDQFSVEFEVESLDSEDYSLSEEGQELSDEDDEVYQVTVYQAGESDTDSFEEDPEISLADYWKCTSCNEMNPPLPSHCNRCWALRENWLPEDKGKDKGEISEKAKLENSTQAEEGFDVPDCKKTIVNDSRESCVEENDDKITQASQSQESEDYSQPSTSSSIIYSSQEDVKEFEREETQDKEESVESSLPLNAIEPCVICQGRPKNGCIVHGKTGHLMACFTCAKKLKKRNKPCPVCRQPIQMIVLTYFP
# Method: (§1) DKO (p53/HDM2 null) cells were maintained in Dulbecco's modified Eagle's medium (DMEM) with 10% foetal calf serum (FCS) and 1% penicillin/streptomycin. The cells were seeded at 1.0×10^5 cells/well in 6-well plates, 24 hours prior to transfection. […] In all cases, the total amount of plasmid DNA transfected per well was equilibrated by addition of the parental vector pcDNA3.1a(+).
# (§2) DKO cells were harvested 24 hours after transfection and […] activities were assessed using the Dual-light System (Applied Biosystems) according to the manufacturer's protocol. The β-galactosidase activity was normalized with luciferase activity for each sample. To check for expression levels of relevant proteins via Western blot, 2.5 μg of the cell lysates were subjected to electrophoresis, transferred to nitrocellulose membranes and probed for p53 with horseradish peroxidise conjugated DO1 antibody, for HDM2 and actin with anti-HA antibody and AC15 antibody respectively followed by rabbit anti-mouse.
# (§3) Mouse embryonic fibroblast p53/Mdm2 double-knockout (DKO) cells (a kind gift from Guillermina Lozano) and H1299 p53^−/− cells were maintained in Dulbecco's modified Eagle's medium (DMEM) with 10% (v/v) foetal calf serum (FCS) and 1% (v/v) penicillin/streptomycin. The cells were seeded at 1.0×10^5 cells/well in 6-well plates, 24 hours prior to transfection. […]
# wild-type HDM2 = molecular target: T2, wild-type HDM2 (Homo sapiens, UniProt Q00987); assay: p53 reporter assay in p53/HDM2-null DKO cells, wild-type HDM2; type: cell-based; conditions: 20 μM
# T2 construct: expressed in transfected cells; host or cells: H1299 p53-/- cells (A5); mouse embryonic fibroblast p53/Mdm2 double-knockout (DKO) cells (A7)
# T2 sequence (Q00987 whole entry): as the sequence (Q00987 whole entry M62A) above, with A62M counted along it
# Method: as §1, §2, §3
# [1] = molecular target: T3, wild-type HDM2-p53 interaction (Homo sapiens, UniProt Q00987); assay: In vitro pull-down (co-immunoprecipitation, Western blot), wild-type HDM2; type: biochemical; conditions: 10 μM
# T3 construct: made in house; host or cells: cell-free in vitro transcription-translation (IVT)
# T3 sequence (Q00987 whole entry): as the sequence (Q00987 whole entry M62A) above, with A62M counted along it
# Method: (§4) Protein G beads were incubated with anti-HA (1 μg per 10 μL beads) for 1 hour in PEST-3% BSA and subsequently washed twice in PBST-0.1% BSA. IVT-expressed protein was incubated with the beads on a rotator for 30 mins. […] IVT-containing secondary protein was added to the mixture and incubation allowed for 1 hour. Beads were finally washed thrice in PBST-0.1% BSA and thrice with PBS, and bound proteins eluted by resuspension in 20 μL SDS-PAGE loading buffer and incubation at 95° C. for 5 minutes. Where required, blank IVT extract (no template DNA added) was used as control. The eluates were subjected to electrophoresis, transferred to nitrocellulose membranes and probed for p53 with horseradish peroxidise conjugated DO1 antibody (Santa Cruz) or for HDM2 with anti-HA antibody followed by rabbit anti-mouse (Dakocytomation).
# (§5) Protein G beads (Invitrogen) were incubated with anti-HA (1 μg per 10 μL beads) for 1 hour in PBST-3% BSA and subsequently washed twice in PBST-0.1% BSA. IVT expressed wild-type or mutant HDM2 was incubated with the beads on a rotator for 30 mins. […] IVT-expressed p53 was added to the mixture and incubation allowed for 1 hour. Beads were finally washed thrice in PBST-0.1% BSA and thrice with PBS, and bound proteins eluted by resuspension in 20 μL SDS-PAGE loading buffer and incubation at 95° C. for 5 minutes. […]
# [2] = molecular target: T4, HDM2 Q24R-p53 interaction (Homo sapiens, UniProt Q00987, Q24R); assay: In vitro pull-down (co-immunoprecipitation, Western blot), HDM2 Q24R; type: biochemical; conditions: 10 μM
# T4 construct: made in house; host or cells: cell-free in vitro transcription-translation (IVT)
# T4 sequence (Q00987 whole entry Q24R): as the sequence (Q00987 whole entry M62A) above, with Q24R, A62M counted along it
# Method: as §4, §5
# [3] = molecular target: T5, HDM2 M62A-p53 interaction (Homo sapiens, UniProt Q00987, M62A); assay: In vitro pull-down (co-immunoprecipitation, Western blot), HDM2 M62A; type: biochemical; conditions: 10 μM
# T5 construct: made in house; host or cells: cell-free in vitro transcription-translation (IVT)
# T5 sequence (Q00987 whole entry M62A): as the sequence (Q00987 whole entry M62A) above
# Method: as §4, §5
# [4] = molecular target: purified HDM2 (amino acids 1-125) P20L (human) (UniProt Q00987); assay: competitive fluorescence anisotropy against FAM-12-1 peptide, apparent Kd
# purified HDM2 (amino acids 1-125) P20L (human), sequence (Q00987 1-125 P20L limits assumed): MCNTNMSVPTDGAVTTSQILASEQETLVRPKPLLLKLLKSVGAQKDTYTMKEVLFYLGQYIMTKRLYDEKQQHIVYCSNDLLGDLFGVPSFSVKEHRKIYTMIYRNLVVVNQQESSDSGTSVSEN
# [5] = molecular target: purified HDM2 (amino acids 1-125) M62A (human) (UniProt Q00987); assay: as above
# purified HDM2 (amino acids 1-125) M62A (human), sequence (Q00987 1-125 M62A limits assumed): as the sequence (Q00987 1-125 P20L limits assumed) above, with L20P, M62A counted along it
# [6] = molecular target: purified HDM2 (amino acids 1-125) Q24R (human) (UniProt Q00987); assay: as above
# purified HDM2 (amino acids 1-125) Q24R (human), sequence (Q00987 1-125 Q24R limits assumed): as the sequence (Q00987 1-125 P20L limits assumed) above, with L20P, Q24R counted along it
# [7] = molecular target: purified HDM2 (amino acids 1-125), wild-type (human) (UniProt Q00987); assay: as above
# purified HDM2 (amino acids 1-125), wild-type (human), sequence (Q00987 1-125 limits assumed): as the sequence (Q00987 1-125 P20L limits assumed) above, with L20P counted along it
Molecule,"p53 activity restored, of that seen in absence of HDM2 co-transfection (HDM2 M62A)","p53 activity restored, of that seen in absence of HDM2 co-transfection (wild-type HDM2)",effect on p53 binding to immobilised HDM2 (Western blot) [1],effect on p53 binding to immobilised HDM2 (Western blot) [2],effect on p53 binding to immobilised HDM2 (Western blot) [3],Kd [4],Kd [5],Kd [6],Kd [7]
CC(=O)N[C@H](C(=O)N[C@@H](CO)C(=O)N[C@@H](Cc1ccccc1)C(=O)N[C@]1(C)CCCCCCC=CCCC[C@@](C)(C(N)=O)NC(=O)[C@H](CC(C)C)NC(=O)[C@H](CC(C)C)NC(=O)[C@H](C)NC(=O)[C@H](Cc2c[nH]c3cc(Cl)ccc23)NC(=O)[C@H](Cc2ccc(O)cc2)NC(=O)[C@H](CCC(=O)O)NC1=O)[C@@H](C)O [MO11],47%,51%,showed inhibition of p53 binding,showed inhibition of p53 binding; also recorded: abrogate the mutant HDM2-p53 interaction as efficiently as Nutlin inhibits the wildtype HDM2-p53 interaction,showed inhibition of p53 binding; also recorded: abrogate the mutant HDM2-p53 interaction as efficiently as Nutlin inhibits the wildtype HDM2-p53 interaction,–,–,–,–
p53 peptide,–,–,–,–,–,17.2 nM,29.6 nM,10.4 nM,13.9 nM
